Test results published in ChEMBL document CHEMBL5465560, “Selectivity Literature for EUbOPEN Chemogenomic Library” (2024).

Legend:
[1] = target: T1, Uncharacterized serine/threonine-protein kinase SBK3 (Homo sapiens) (UniProt P0C264); assay: Selectivity interaction (KinomeScan (DiscoverX)) EUB0001079a SBK3; settings: at 1 µM
T1 sequence (whole entry): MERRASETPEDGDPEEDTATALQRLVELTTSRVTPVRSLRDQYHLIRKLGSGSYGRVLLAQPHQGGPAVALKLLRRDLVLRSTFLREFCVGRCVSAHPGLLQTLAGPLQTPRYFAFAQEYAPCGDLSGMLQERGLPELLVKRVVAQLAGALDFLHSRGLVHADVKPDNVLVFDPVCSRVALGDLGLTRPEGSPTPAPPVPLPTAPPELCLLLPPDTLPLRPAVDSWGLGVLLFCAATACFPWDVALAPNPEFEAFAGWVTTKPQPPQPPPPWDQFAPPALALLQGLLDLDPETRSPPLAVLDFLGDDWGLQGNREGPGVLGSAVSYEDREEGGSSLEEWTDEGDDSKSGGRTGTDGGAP

[2] = target: Tyrosine-protein kinase Fgr (Homo sapiens) (UniProt P09769); settings: at 10 µM
Tyrosine-protein kinase Fgr (Homo sapiens), sequence (P09769 2-529 limits assumed): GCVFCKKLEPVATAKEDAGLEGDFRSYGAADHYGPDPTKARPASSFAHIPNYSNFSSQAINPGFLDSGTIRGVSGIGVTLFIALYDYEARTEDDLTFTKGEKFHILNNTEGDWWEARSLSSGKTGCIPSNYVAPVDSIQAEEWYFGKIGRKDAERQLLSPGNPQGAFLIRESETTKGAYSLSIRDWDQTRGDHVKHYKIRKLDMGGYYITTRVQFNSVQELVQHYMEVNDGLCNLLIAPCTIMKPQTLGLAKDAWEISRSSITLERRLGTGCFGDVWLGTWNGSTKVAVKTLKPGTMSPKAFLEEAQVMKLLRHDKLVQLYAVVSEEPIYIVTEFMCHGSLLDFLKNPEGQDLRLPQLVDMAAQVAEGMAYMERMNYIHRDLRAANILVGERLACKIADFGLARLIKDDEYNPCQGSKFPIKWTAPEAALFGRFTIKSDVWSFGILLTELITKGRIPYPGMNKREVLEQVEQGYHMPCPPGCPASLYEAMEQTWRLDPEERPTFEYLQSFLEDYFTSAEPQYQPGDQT

[3] = target: T2, Serine/threonine-protein kinase D2 (Homo sapiens) (UniProt Q9BZL6); assay: Selectivity interaction (Kinase panel (Z-LYTE Assay)) EUB0001632a PRKD2; settings: at 10 µM
T2 sequence (whole entry): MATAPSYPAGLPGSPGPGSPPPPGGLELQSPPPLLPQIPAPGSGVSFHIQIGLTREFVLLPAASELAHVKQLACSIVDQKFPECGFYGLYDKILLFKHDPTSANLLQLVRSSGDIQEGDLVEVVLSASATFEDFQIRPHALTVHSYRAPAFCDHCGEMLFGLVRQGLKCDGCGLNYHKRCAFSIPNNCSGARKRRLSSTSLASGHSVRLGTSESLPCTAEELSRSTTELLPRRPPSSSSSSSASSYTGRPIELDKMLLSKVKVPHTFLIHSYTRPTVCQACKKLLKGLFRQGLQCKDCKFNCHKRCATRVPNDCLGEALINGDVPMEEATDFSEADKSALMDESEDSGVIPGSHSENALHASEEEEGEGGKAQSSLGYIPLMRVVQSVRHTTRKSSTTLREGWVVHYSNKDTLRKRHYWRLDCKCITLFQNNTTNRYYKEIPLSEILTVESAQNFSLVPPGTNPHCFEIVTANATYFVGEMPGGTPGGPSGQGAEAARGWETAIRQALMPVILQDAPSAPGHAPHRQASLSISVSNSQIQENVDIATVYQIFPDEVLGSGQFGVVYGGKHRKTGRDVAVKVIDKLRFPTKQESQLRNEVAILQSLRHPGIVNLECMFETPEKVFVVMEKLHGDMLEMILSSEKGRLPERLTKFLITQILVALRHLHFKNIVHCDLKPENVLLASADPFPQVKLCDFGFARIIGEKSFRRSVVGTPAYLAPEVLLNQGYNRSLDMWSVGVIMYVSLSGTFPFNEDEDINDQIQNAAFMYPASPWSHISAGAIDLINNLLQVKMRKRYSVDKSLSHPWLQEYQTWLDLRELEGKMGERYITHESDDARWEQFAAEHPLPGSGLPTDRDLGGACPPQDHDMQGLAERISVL

[4] = target: T3, Mitogen-activated protein kinase 13 (Homo sapiens) (UniProt O15264); assay: Selectivity interaction (Kinase panel (Invitrogen)) EUB0000639a MAPK13; settings: at 200 nM
T3 sequence (whole entry): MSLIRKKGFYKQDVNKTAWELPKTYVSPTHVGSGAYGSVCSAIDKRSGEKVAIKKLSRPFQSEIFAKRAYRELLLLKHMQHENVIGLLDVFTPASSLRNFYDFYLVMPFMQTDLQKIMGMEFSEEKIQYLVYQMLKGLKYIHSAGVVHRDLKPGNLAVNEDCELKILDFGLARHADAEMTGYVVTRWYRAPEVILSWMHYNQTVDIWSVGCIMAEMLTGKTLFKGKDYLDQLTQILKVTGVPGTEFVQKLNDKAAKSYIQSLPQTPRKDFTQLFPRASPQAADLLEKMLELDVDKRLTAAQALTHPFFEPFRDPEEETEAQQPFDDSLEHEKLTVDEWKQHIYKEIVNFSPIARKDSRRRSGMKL

[5] = target: Rho-associated protein kinase 2 (Homo sapiens, UniProt O75116); assay: Selectivity interaction (KinomeScan (DiscoverX)) EUB0000595a ROCK2; settings: at 10 µM
Rho-associated protein kinase 2, sequence (O75116 whole entry, looked up): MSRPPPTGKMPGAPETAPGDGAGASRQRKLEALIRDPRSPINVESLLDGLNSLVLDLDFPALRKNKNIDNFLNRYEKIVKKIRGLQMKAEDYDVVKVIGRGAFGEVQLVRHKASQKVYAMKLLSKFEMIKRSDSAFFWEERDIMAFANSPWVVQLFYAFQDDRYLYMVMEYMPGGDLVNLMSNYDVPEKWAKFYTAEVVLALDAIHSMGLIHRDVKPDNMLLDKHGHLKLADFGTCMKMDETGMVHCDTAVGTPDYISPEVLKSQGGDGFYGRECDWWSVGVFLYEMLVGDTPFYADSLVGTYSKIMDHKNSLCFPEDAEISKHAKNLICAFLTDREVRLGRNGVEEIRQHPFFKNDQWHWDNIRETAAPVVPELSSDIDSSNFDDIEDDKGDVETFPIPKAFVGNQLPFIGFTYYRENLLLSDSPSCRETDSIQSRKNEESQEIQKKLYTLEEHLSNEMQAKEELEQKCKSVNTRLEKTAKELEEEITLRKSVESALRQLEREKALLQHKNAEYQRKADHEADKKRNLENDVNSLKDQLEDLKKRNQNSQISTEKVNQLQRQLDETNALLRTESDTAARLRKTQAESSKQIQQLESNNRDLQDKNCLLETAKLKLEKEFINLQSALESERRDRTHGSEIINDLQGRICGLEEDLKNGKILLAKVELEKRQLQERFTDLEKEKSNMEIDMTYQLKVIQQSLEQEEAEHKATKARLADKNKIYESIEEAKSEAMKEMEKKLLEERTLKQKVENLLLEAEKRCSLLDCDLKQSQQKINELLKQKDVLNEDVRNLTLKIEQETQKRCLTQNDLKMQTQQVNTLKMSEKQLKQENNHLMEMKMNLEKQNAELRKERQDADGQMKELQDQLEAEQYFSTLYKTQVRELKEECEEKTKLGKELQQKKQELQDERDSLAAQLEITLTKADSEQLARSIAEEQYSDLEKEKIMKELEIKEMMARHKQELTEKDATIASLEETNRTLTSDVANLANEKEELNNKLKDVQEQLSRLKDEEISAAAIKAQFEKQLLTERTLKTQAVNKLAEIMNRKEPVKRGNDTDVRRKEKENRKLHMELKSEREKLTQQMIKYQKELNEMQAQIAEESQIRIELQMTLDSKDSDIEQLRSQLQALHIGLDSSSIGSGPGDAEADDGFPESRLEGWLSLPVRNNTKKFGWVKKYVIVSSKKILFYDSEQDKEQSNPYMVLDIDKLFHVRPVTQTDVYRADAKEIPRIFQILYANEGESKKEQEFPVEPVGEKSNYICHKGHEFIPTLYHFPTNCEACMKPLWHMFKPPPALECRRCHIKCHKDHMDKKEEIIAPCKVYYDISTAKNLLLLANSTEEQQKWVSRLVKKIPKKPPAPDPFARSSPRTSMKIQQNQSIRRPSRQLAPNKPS

[6] = target: T4, Serine/threonine-protein kinase DCLK3 (Homo sapiens) (UniProt Q9C098); assay: Selectivity interaction (KinomeScan (DiscoverX)) EUB0000595a DCLK3; settings: at 10 µM
T4 sequence (whole entry): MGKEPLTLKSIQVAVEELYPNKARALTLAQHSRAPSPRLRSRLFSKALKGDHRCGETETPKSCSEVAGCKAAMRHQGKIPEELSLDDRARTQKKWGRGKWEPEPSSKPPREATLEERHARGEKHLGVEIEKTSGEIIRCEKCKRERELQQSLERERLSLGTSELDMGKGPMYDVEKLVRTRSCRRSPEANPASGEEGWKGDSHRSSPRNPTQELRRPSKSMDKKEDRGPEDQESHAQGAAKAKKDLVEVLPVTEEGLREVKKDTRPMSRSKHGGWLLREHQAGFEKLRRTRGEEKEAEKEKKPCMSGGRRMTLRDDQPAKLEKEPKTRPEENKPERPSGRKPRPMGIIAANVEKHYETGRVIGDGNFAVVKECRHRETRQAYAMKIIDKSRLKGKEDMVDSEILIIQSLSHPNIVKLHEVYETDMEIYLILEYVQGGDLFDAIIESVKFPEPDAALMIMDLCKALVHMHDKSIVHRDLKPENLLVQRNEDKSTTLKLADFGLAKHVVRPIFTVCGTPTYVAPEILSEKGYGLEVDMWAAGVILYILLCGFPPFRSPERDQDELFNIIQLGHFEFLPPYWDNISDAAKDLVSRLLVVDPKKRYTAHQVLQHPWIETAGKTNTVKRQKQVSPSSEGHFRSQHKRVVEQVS

[7] = target: T5, Dual specificity mitogen-activated protein kinase kinase 6 (Homo sapiens) (UniProt P52564); assay: Selectivity interaction (KinomeScan (DiscoverX)) EUB0001619a MAP2K6; settings: at 1 µM
T5 sequence (whole entry): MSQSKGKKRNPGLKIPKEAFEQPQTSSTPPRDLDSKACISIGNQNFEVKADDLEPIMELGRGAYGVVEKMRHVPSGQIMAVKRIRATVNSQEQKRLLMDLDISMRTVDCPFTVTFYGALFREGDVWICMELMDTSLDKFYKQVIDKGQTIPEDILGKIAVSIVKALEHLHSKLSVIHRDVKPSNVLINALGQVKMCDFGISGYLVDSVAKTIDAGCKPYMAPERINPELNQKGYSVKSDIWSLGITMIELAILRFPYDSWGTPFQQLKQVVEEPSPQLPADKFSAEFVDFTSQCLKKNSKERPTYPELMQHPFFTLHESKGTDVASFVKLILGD

## Nc1cnc(N2CCc3cc(S(=O)(=O)Nc4c(F)cc(Cl)cc4F)cc(N4CCCC4=O)c32)nc1 [TP-020n]
[1]
  % of control: 100%

## Cc1cc([C@@H](C)Nc2ccccc2C(=O)O)c2nc(N3CCOCC3)cc(=O)n2c1 [AZD-6482]
[2]
  % of control: 95%

## Cn1cc(-n2cnc3c(NCc4nc5cc(Cl)c(Cl)cc5[nH]4)nc(N4CCOCC4)nc32)cn1
[3]
  % of control: 0.629%

## CC[C@@H]1[C@H](F)C(=O)N[C@@H]1COc1nccc2cc(C(N)=O)c(OC)cc12 [ZIMLOVISERTIB]
[4]
  % of inhibition: 6.06%

## COCC(=O)NC/C=C/c1ccc2ncnc(Nc3ccc(Oc4ccc(C)nc4)c(C)c3)c2c1 [CP-724714]
[5]
  % of control: 100%
[6]
  % of control: 83%

## N#Cc1cccc(-c2c[nH]c3ncnc(N4CCOCC4)c23)c1
[7]
  % of control: 80%
